{
  "source": "patent US20220096437A1",
  "about": "“ANTIBACTERIAL COMPOUNDS” (The University of Birmingham, priority 2019, published 2022)",
  "tested_on": "Mycobacterium tuberculosis H37Rv",
  "assay": "Susceptibility testing against Mycobacterium tuberculosis H37Rv (broth microdilution, resazurin readout)",
  "assay_type": "cell-based",
  "settings": "M. tuberculosis H37Rv, 7 days at 37° C., resazurin fluorescence; for MIC50: read-out: MIC50 (μM) M. tub H37Rv; for MIC99: Gomperz fit, read-out: MIC99 (μM) M. tub H37Rv",
  "key": {"[1]": {"settings": "Mycobacterium tuberculosis, 168 h"}},
  "note": "Where two headings read alike, the source gives them in different places.",
  "data": [
    {"smiles": "C#CCNCC1CC(c2cc(Br)cc(Br)c2)N1Cc1ccccc1Br", "note": "(racemic) [Azet 3, rac-N-(((2,4-cis)-1-(2-bromobenzyl)-4-(3,5-dibromophenyl)azetidin-2-yl)methyl)prop-2-yn-1-amine]", "values": [
      {"measurement": "MIC50", "setting": "[1]", "result": 22.8, "unit": "µM"}
    ]},
    {"smiles": "FC(F)(F)Oc1cccc(C2CC(CN3CCCC3)N2Cc2ccccc2OC(F)(F)F)c1", "note": "(racemic) [Azet 58, rac-1-(((2,4-cis)-1-(2-(trifluoromethoxy)benzyl) (trifluoromethoxy)phenyl)azetidin-2-yl)methyl)pyrrolidine]", "values": [
      {"measurement": "MIC50", "setting": "[1]", "result": 9.14, "unit": "µM"}
    ]},
    {"smiles": "Clc1cc(Cl)cc(C2CC(CN3CCCC3)N2Cc2ccccc2Br)c1", "note": "(racemic) [Azet 32, rac-1-(((2,4-cis)-1-(2-bromobenzyl)-4-(3,5-dichlorophenyl)azetidin-2-yl)methyl)pyrrolidine]", "values": [
      {"measurement": "MIC99", "setting": "[1]", "result": 9.21, "unit": "µM"},
      {"measurement": "MIC50", "setting": "[1]", "result": 7.58, "unit": "µM"}
    ]},
    {"smiles": "CC(C)NCC1CC(c2ccccc2)N1Cc1ccccc1OC(F)(F)F", "note": "(racemic) [Azet 30, rac-N-(((2,4-cis)-4-phenyl-1-(2-(trifluoromethoxy)benzyl)azetidin-2-yl)methyl)propan-2-amine]", "values": [
      {"measurement": "MIC99", "setting": "[1]", "result": 48.9, "unit": "µM"},
      {"measurement": "MIC50", "setting": "[1]", "result": 21.1, "unit": "µM"}
    ]},
    {"smiles": "FC(F)(F)Oc1ccc(C2CC(CNC3CC3)N2Cc2ccccc2OC(F)(F)F)cc1", "note": "(racemic) [Azet 18, rac-N-(((2,4-cis)-1-(2-(trifluoromethoxy)benzyl)-4-(4-(trifluoromethoxy)phenyl)azetidin-2-yl)methyl)cyclopropana-mine]", "values": [
      {"measurement": "MIC99", "setting": "[1]", "result": 13, "unit": "µM"},
      {"measurement": "MIC50", "setting": "[1]", "result": 11.9, "unit": "µM"}
    ]},
    {"smiles": "CN(C)CC1CC(c2ccc(OC(F)(F)F)cc2)N1Cc1ccccc1OC(F)(F)F", "note": "(racemic) [Azet 5, rac-N,N-dimethyl-1-((2,4- cis)-1-(2-(trifluoromethoxy)benzyl)-4-(4-(trifluoromethoxy)phenyl)azetidin-2-yl)methanamine]", "values": [
      {"measurement": "MIC99", "setting": "[1]", "result": 12, "unit": "µM"},
      {"measurement": "MIC50", "setting": "[1]", "result": 9.9, "unit": "µM"}
    ]},
    {"smiles": "CC(C)NCC1CC(c2ccc(OC(F)(F)F)cc2)N1Cc1ccccc1Br", "note": "(racemic) [Azet 29, rac-N-(((2,4-cis)-1-(2-bromobenzyl)-4-(4-(trifluoromethoxy)phenyl)azetidin-2-yl)methyl)propan-2-amine]", "values": [
      {"measurement": "MIC99", "setting": "[1]", "result": 24.5, "unit": "µM"},
      {"measurement": "MIC50", "setting": "[1]", "result": 9.85, "unit": "µM"}
    ]},
    {"smiles": "CN(C)CC1CC(c2cc(Br)cc(Br)c2)N1Cc1ccccc1Br", "note": "(racemic) [Azet 2, rac-1-((2,4-cis)-1-(2-bromobenzyl)-4-(3,5-dibromophenyl)azetidin-2-yl)-N,N-dimethylmethanamine]", "values": [
      {"measurement": "MIC50", "setting": "[1]", "result": 5.6, "unit": "µM"}
    ]},
    {"smiles": "FC(F)(F)Oc1ccc(C2CC(CN3CCCC3)N2Cc2ccccc2OC(F)(F)F)cc1", "note": "(racemic) [Azet 59, rac-1-(((2,4-cis)-1-(2-(trifluoromethoxy)benzyl)-4-(4-(trifluoromethoxy)phenyl)azetidin-2-yl)methyl)pyrrolidine]", "values": [
      {"measurement": "MIC99", "setting": "[1]", "result": 6.25, "unit": "µM"},
      {"measurement": "MIC50", "setting": "[1]", "result": 9.42, "unit": "µM"}
    ]},
    {"smiles": "COc1ccccc1CN1C(CN2CCCC2)CC1c1ccc(Cl)cc1", "note": "(racemic) [Azet 53, rac-1-(((2,4-cis)-4-(4-chlorophenyl)-1-(2-methoxybenzyl)azetidin-2-yl)methyl)pyrrolidine]", "values": [
      {"measurement": "MIC50", "setting": "[1]", "result": 10.3, "unit": "µM"}
    ]},
    {"smiles": "COc1ccc(C2CC(CN3CCCC3)N2Cc2ccccc2Br)cc1", "note": "(racemic) [Azet 42, rac-1-(((2,4-cis)-1-(2-bromobenzyl)-4-(4-methoxyphenyl)azetidin-2-yl)methyl)pyrrolidine]", "values": [
      {"measurement": "MIC99", "setting": "[1]", "result": 42.6, "unit": "µM"},
      {"measurement": "MIC50", "setting": "[1]", "result": 20.8, "unit": "µM"}
    ]},
    {"smiles": "Brc1cc(Br)cc(C2CC(CN3CCCC3)N2Cc2ccccc2Br)c1", "note": "(racemic) [Azet 34, rac-1-(((2,4-cis)-1-(2-bromobenzyl)-4-(3,5-dibromophenyl)azetidin-2-yl)methyl)pyrrolidine]", "values": [
      {"measurement": "MIC99", "setting": "[1]", "result": 3.26, "unit": "µM"},
      {"measurement": "MIC50", "setting": "[1]", "result": 7.03, "unit": "µM"}
    ]},
    {"smiles": "FC(F)(F)c1ccccc1CN1C(CN2CCCC2)CC1c1ccccc1", "note": "(racemic) [Azet 63, rac-1-(((2,4-cis)-4-phenyl-1-(2-(trifluoromethyl)benzyl)a-zetidin-2-yl)methyl)pyrrolidine]", "values": [
      {"measurement": "MIC50", "setting": "[1]", "result": 22.7, "unit": "µM"}
    ]},
    {"smiles": "FC(F)(F)Oc1ccccc1CN1C(CN2CCCC2)CC1c1ccccc1OC(F)(F)F", "note": "(racemic) [Azet 57, rac-1-(((2,4-cis)-1-(2-(trifluoromethoxy)benzyl) (trifluoromethoxy)phenyl)azetidin-2-yl)methyl)pyrrolidine]", "values": [
      {"measurement": "MIC50", "setting": "[1]", "result": 7.05, "unit": "µM"}
    ]},
    {"smiles": "Cc1ccccc1CN1C(CN2CCCC2)CC1c1ccccc1", "note": "(racemic) [Azet 62, rac-1-(((2,4-cis)-1-(2-methylbenzyl)-4-phenylazetidin-2-yl)methyl)pyrrolidine]", "values": [
      {"measurement": "MIC50", "setting": "[1]", "result": 37, "unit": "µM"}
    ]},
    {"smiles": "FC(F)(F)Oc1ccccc1CN1C(CN2CCCC2)CC1c1ccccc1", "note": "(racemic) [Azet 61, rac-1-(((2,4-cis)-4-phenyl-1-(2-(trifluoromethoxy)benzyl)azetidin-2-yl)methyl)pyrrolidine]", "values": [
      {"measurement": "MIC50", "setting": "[1]", "result": 17.9, "unit": "µM"}
    ]},
    {"smiles": "Brc1cc(Br)cc(C2CC(CNC3CC3)N2Cc2ccccc2Br)c1", "note": "(racemic) [Azet 1, rac-N-(((2,4-cis)-1-(2-bromobenzyl)-4-(3,5-dibromophenyl)azetidin-2-yl)methyl)cyclopropana-mine]", "values": [
      {"measurement": "MIC99", "setting": "[1]", "result": 51.8, "unit": "µM"},
      {"measurement": "MIC50", "setting": "[1]", "result": 11.8, "unit": "µM"}
    ]},
    {"smiles": "FC(F)(F)c1cccc(C2CC(CN3CCCC3)N2Cc2ccccc2C(F)(F)F)c1", "note": "(racemic) [Azet 50, rac-1-(((2,4-cis)-1-(2-(trifluoromethyl)benzyl)-4-(3-(trifluoromethyl)phenyl)a-zetidin-2-yl)methyl)pyrrolidine]", "values": [
      {"measurement": "MIC50", "setting": "[1]", "result": 7.04, "unit": "µM"}
    ]},
    {"smiles": "FC(F)(F)c1cc(C2CC(CN3CCCC3)N2Cc2ccccc2Br)cc(C(F)(F)F)c1", "note": "(racemic) [Azet 33, rac-1-(((2,4-cis)-4-(3,5-bis(trifluoromethyl)phenyl)-1-(2-bromobenzyl)azetidin-2-yl)methyl)pyrrolidine]", "values": [
      {"measurement": "MIC99", "setting": "[1]", "result": 3.29, "unit": "µM"},
      {"measurement": "MIC50", "setting": "[1]", "result": 6.93, "unit": "µM"}
    ]},
    {"smiles": "FC(F)(F)c1ccccc1CN1C(CN2CCCC2)CC1c1ccccc1C(F)(F)F", "note": "(racemic) [Azet 49, rac-1-(((2,4-cis)-1-(2-(trifluoromethyl)benzyl)-4-(2-(trifluoromethyl)phenyl)a-zetidin-2-yl)methyl)pyrrolidine]", "values": [
      {"measurement": "MIC50", "setting": "[1]", "result": 6.68, "unit": "µM"}
    ]},
    {"smiles": "FC(F)(F)Oc1ccc(C2CC(CN3CCC(c4ccc(C(F)(F)F)cc4)CC3)N2Cc2ccccc2Br)cc1", "note": "(racemic) [Azet 39, rac-1-(((2,4-cis)-1-(2-bromobenzyl)-4-(4-(trifluoromethoxy)phenyl)azetidin-2-yl)methyl)-4-(4-(trifluoromethyl)phenyl)pi-peridine]", "values": [
      {"measurement": "MIC99", "setting": "[1]", "result": 90.9, "unit": "µM"},
      {"measurement": "MIC50", "setting": "[1]", "result": 85, "unit": "µM"}
    ]},
    {"smiles": "CNCC1CC(c2ccc(OC(F)(F)F)cc2)N1Cc1ccccc1OC(F)(F)F", "note": "(racemic) [Azet 19, rac-N-methyl-1-((2,4-cis)-1-(2-(trifluoromethoxy)benzyl) (trifluoromethoxy)phenyl) azetidin-2-yl)methanamine]", "values": [
      {"measurement": "MIC99", "setting": "[1]", "result": 7.2, "unit": "µM"},
      {"measurement": "MIC50", "setting": "[1]", "result": 4.5, "unit": "µM"}
    ]},
    {"smiles": "CC(C)NCC1CC(c2ccc(OC(F)(F)F)cc2)N1Cc1ccccc1OC(F)(F)F", "note": "(racemic) [Azet 31, rac-N-(((2,4-cis)-1-(2-(trifluoromethoxy)benzyl)-4-(4-(trifluoromethoxy)phenyl)azetidin-2-yl)methyl)propan-2-amine]", "values": [
      {"measurement": "MIC99", "setting": "[1]", "result": 26.4, "unit": "µM"},
      {"measurement": "MIC50", "setting": "[1]", "result": 8.89, "unit": "µM"}
    ]},
    {"smiles": "COc1ccccc1CN1C(CN2CCCC2)CC1c1cccc(Cl)c1", "note": "(racemic) [Azet 54, rac-1-(((2,4-cis)-4-(3-chlorophenyl)-1-(2-methoxybenzyl)azetidin-2-yl)methyl)pyrrolidine]", "values": [
      {"measurement": "MIC50", "setting": "[1]", "result": 11.7, "unit": "µM"}
    ]},
    {"smiles": "COc1ccccc1CN1C(CN2CCCC2)CC1c1ccccc1Cl", "note": "(racemic) [Azet 55, rac-1-(((2,4-cis)-4-(2-chlorophenyl)-1-(2-methoxybenzyl)azetidin-2-yl)methyl)pyrrolidine]", "values": [
      {"measurement": "MIC50", "setting": "[1]", "result": 27.6, "unit": "µM"}
    ]},
    {"smiles": "COc1ccccc1CN1C(CN2CCCC2)CC1c1ccc(Br)cc1", "note": "(racemic) [Azet 48, rac-1-(((2,4-cis)-4-(4-bromophenyl)-1-(2-methoxybenzyl)azetidin-2-yl)methyl)pyrrolidine]", "values": [
      {"measurement": "MIC50", "setting": "[1]", "result": 20.3, "unit": "µM"}
    ]},
    {"smiles": "FC(F)(F)c1ccc(C2CC(CN3CCCC3)N2Cc2ccccc2C(F)(F)F)cc1", "note": "(racemic) [Azet 51, rac-1-(((2,4-cis)-1-(2-(trifluoromethyl)benzyl)-4-(4-(trifluoromethyl)phenyl)a-zetidin-2-yl)methyl)pyrrolidine]", "values": [
      {"measurement": "MIC50", "setting": "[1]", "result": 8.31, "unit": "µM"}
    ]},
    {"smiles": "CN(C)CC1CC(c2cc(C(F)(F)F)cc(C(F)(F)F)c2)N1Cc1ccccc1Br", "note": "(racemic) [Azet 4, rac-1-((2,4-cis)-4-(3,5-bis(trifluoromethyl)phenyl)-1-(2-bromobenzyl)azetidin-2-yl)-N,N-dimethylmethanamine]", "values": [
      {"measurement": "MIC99", "setting": "[1]", "result": 7.3, "unit": "µM"},
      {"measurement": "MIC50", "setting": "[1]", "result": 6.59, "unit": "µM"}
    ]},
    {"smiles": "COCCNCC1CC(c2ccc(OC(F)(F)F)cc2)N1Cc1ccccc1OC(F)(F)F", "note": "(racemic) [Azet 20, rac-2-methoxy-N-(((2,4- cis)-1-(2-(trifluoromethoxy)benzyl)-4-(4-(trifluoromethoxy)phenyl)azetidin-2-yl)methyl)ethan-1-amine]", "values": [
      {"measurement": "MIC99", "setting": "[1]", "result": 18, "unit": "µM"},
      {"measurement": "MIC50", "setting": "[1]", "result": 11, "unit": "µM"}
    ]},
    {"smiles": "CC(C)(C)c1ccc(C2CC(CN3CCCC3)N2Cc2ccccc2C(F)(F)F)cc1", "note": "(racemic) [Azet 52, rac-1-(((2,4-cis)-4-(4-(tert-butyl)phenyl)-1-(2-(trifluoromethyl)benzyl)a-zetidin-2-yl)methyl)pyrrolidine]", "values": [
      {"measurement": "MIC50", "result": 8.62, "unit": "µM"}
    ]}
  ]
}
